{"source": "patent US9688620B2", "about": "“Methods for treating fibromyalgia syndrome” (SK Biopharmaceuticals Co., Ltd., priority 2009, dated 2017)", "key": {"[1]": {"test_system": "littermate wild-type mice", "experiment": "Sleep parameters (EEG/EMG polygraph) in littermate wild-type mice", "assay_type": "in vivo", "details": "for wake-promoting effects: resting period (dosed PO at ZT 2); for duration of continuous wakefulness: most wild-type mice", "description": "(§1) The polygraph signal (EEG and EMG) was captured with SleepSign (Kissel Comtech), and the sleep stage was visually scored with 10 sec epoch for wakefulness, non-REM sleep and REM sleep. Scoring criteria are: Wakefulness is characterized by desynchronized low-amplitude, mixed frequency (>4 Hz) EEG and high EMG activity. Rhythmic alpha (8-9 Hz) wave (with high EMG activities) may also appear. Non-REM is characterized by synchronized, high-amplitude, low-frequency (0.25-4 Hz) with reduced EMG activity (compared to wakefulness). EEG activity in REM sleep is similar to that in wakefulness, with desynchronized, mixed frequency low amplitude waves. Rhythmic alpha (8-9 Hz) wave with reduced EMG activities may also appear. […] activity during REM sleep is reduced even further and in many cases, completely absent. Some muscle twitching may be apparent in the EMG trace during REM sleep.\n(§2) Three drug doses of the test compound (50, 100 and 150 mg/kg PO) plus vehicle, was orally administered at ZT 2 (2 hours after light on) or ZT 14 (2 hours after light off), and the effects on sleep was monitored for 6 hours after the drug administration (the sleep data was collected for 30 hours after the drug injection, and are available for further analysis). The doses for modafinil were 50 and 200 mg/kg PO (plus vehicle), and modafinil was also administered at ZT 2 and ZT14.\n(§3) If the polygraph signals of some mice were not sufficient to score the sleep stage with accuracy (especially bad EMG), data from these animals were excluded, and the minimum of 5 animals (except for the highest dose of the test compound in wild-type mice in dark period, n=4) were included for the data analysis and number of animals were indicated in the figures.\n(§4) Effects of test compound and modafinil on the amount of wake, non-REM sleep, REM sleep (cumulative seconds), number of episodes for each sleep stage during 6 hours, mean wake/sleep-bout lengths (seconds) were analyzed in each animal and the mean of each parameter was calculated in each genotype. The effects of compounds on wake and sleep amounts are useful to evaluate the wake promoting potency, and the number of episodes for each sleep stage and the mean wake/sleep bout length are parameters for evaluating the sleep fragmentation. Amphetamine and modafinil, two main wake-promoting compounds currently used for the treatment of EDS associated with various etiologies (narcolepsy, idiopathic hypersomnia and secondary EDS), are known to increase wake time and prolong wake bout length in normal and EDS conditions.\n(§5) A comparison of the effects between hypocretin deficient and wild-type mice is very useful in determining if the wake-promotion of the test compound is dependent on the availability of hypocretins, and if there is a possible change in the sensitivity of the receptive mechanisms of test compound in narcoleptic mice due to the hypocretin ligand deficiency."}, "[2]": {"test_system": "hypocretin cell ablated narcoleptic mice (prepororexin/ataxin-3 transgenic)", "experiment": "Sleep parameters (EEG/EMG polygraph) in narcoleptic mice", "assay_type": "in vivo", "details": "for wake-promoting effects (magnitude): active (dark) period; for wakefulness (dose dependence): active period (dosed PO at ZT 14); for wake-promoting effects: resting period (dosed PO at ZT 2); for duration of continuous wakefulness: most narcoleptic mice", "description": "as §1, §2, §3, §4, §5"}, "[3]": {"test_system": "rats with sciatic nerve ligation", "experiment": "Thermal hyperalgesia (hindpaw withdrawal latency, plantar tester) in rats with sciatic nerve ligation", "assay_type": "in vivo, Sprague-Dawley rats", "details": "30 mg/kg IP; for mean paw withdrawal latency: n = 6", "method": "Young adult male Sprague-Dawley rats (CD(SD)IGS, 150-200 g) were initially anesthetized with isoflurane in O2 by a mask and the surgical procedure was performed according to the method described by Bennett and Xie (1988). Briefly, the right sciatic nerves were loosely tied using ligatures. All experiments were conducted in accordance with the guidelines of the International Association for the Study of Pain. The behavioral tests were conducted at least 14 days postoperatively.\nThe test compound was dissolved in saline and administered intraperitoneally at 30 mg/kg to animals in a volume of 3 mL/kg body weight.\nTo test for thermal hyperalgesia, the thermal response was determined by the hindpaw withdrawal latency, using a plantar tester (UGO BASILE, Italy), and a modified method of Hargreaves et al. (1988). Rats were allowed to acclimate within plastic enclosures on a clear glass plate maintained at room temperature. A radiant heat source (intensity 90) was controlled with a timer and focused onto the plantar surface of the rat right hind paw encompassing the glabrous skin. Paw withdrawal stopped both heat source and timer. A maximal cut-off 30 sec was used to prevent tissue damage. Rats were assessed for thermal hyperalgesia predose (0 hr) and at 1, 4 and 8 hours after 30 mg/kg test compound administration.\nData are expressed as mean±standard error of mean (SEM). The values of behavioral signs of neuropathic pain at various postoperative time points were compared with those of the preoperative control period by a repeated-measure One-way Analysis of Variance (followed by Dunnett's post-hoc test). P-values less than 0.05 were considered to be significant."}, "[4]": {"test_system": "male Wistar rats", "experiment": "Forced swimming test in rats", "assay_type": "in vivo", "details": "4 hours post-treatment", "method": "(§6) Male CD-1 mice (16-24 g) and male Wistar rats (90-125 g) were utilized in these experiments. The test compound (10, 15 and 30 mg/kg) was dissolved in physiological saline (0.9%) and administered orally PO in a volume of 1 mL/100 g body weight.\n(§7) Mice and rats were placed in glass cylinders (1000 ml beakers; height 14 cm, diameter 11.5 cm) and (4000 ml beakers; height 24.5 cm, diameter 18.0 cm) respectively, containing water (25 degrees Celsius) up to a height of 9.0 cm for mice and 19.0 for rats. […] Immobility was defined as lack of movement, such as floating in the water with little or no movement of hind legs. Duration of immobility was timed with a stopwatch and recorded. In some experiments, mice or rats were allowed to swim for 6 or 10 minutes, respectively, one day prior to the forced swimming experiment.\n(§8) In the single dose test, mice or rats were given test compound or 0.9% NaCl and placed in glass cylinders 1 hour or 4 hours post-treatment, respectively. In the multiple dose experiments, mice were dosed twice a day for 3 days and given an additional dose on Day 4. In addition, the mice were placed in the glass cylinders containing water at 25 degrees Celsius and allowed to swim for six minutes on Day 3. Statistical evaluation was performed using a computer program based on probit analysis. Statistical significance was determined using Student's t-test at a P value of <0.05."}, "[5]": {"test_system": "Male CD-1 mice", "experiment": "Forced swimming test in mice", "assay_type": "in vivo", "details": "for mean duration of immobility: mice", "method": "as §6, §7, §8"}, "[6]": {"details": "resting period, genotypes not distinguished"}}}
{"smiles": "NC(=O)C[S+]([O-])C(c1ccccc1)c1ccccc1", "note": "(stereo not drawn) [modafinil, reference compound]", "values": [{"measurement": "wake-promoting effects", "setting": "[1]; wild-type mice", "result": "modest"}, {"measurement": "wake amount", "setting": "[2]; 200 mg/kg (high dose), active period, narcoleptic mice", "result": "did not bring the wake amount to that of the wild-type baseline levels"}, {"measurement": "wake-promoting effects (magnitude)", "setting": "[2]; narcoleptic mice", "result": "much weaker"}, {"measurement": "wakefulness (dose dependence)", "setting": "[2]; narcoleptic mice", "result": "dose-dependently increase"}, {"measurement": "dose of test compound to which the wake promoting effect of modafinil roughly corresponds", "setting": "[2]; modafinil 200 mg/kg PO, resting period, genotypes not distinguished", "result": "~50", "unit": "mg/kg"}, {"measurement": "wake-promoting effects", "setting": "[2]; narcoleptic mice", "result": "modest"}, {"measurement": "REM sleep", "setting": "[2]; [6]", "result": "did not strongly reduce REM sleep"}]}
{"smiles": "NC(=O)OC[C@H](N)Cc1ccccc1", "note": "[test compound, O-carbamoyl-(D)-phenylalaminol]", "values": [{"measurement": "mean paw withdrawal latency", "setting": "[3]; 0 hr (predose baseline)", "result": 5.17, "unit": "s"}, {"measurement": "mean paw withdrawal latency", "setting": "[3]; 1 hr post-injection, P < 0.01 vs 0 hr", "result": 6.33, "unit": "s"}, {"measurement": "mean paw withdrawal latency", "setting": "[3]; 4 hr post-injection, P < 0.05 vs 0 hr", "result": 6.06, "unit": "s"}, {"measurement": "mean paw withdrawal latency", "setting": "[3]; 8 hr post-injection", "result": 5.63, "unit": "s"}, {"measurement": "paw withdrawal latency to a thermal stimulus (in words)", "setting": "[3]; vs pre-injection (0 hr) latency", "result": "significantly increased"}, {"measurement": "% of Antagonism", "setting": "[3]; 1 hr vs 0 hr latency", "result": "0.14**(22.3%"}, {"measurement": "% of Antagonism", "setting": "[3]; 4 hr vs 0 hr latency", "result": "0.21*(17.2%)"}, {"measurement": "% of Antagonism", "setting": "[3]; 8 hr vs 0 hr latency", "result": "0.16(8.8%)"}, {"measurement": "duration of continuous wakefulness", "setting": "[1]; 50 mg/kg PO, resting period", "result": "up to 3 hours"}, {"measurement": "duration of continuous wakefulness", "setting": "[1]; 100 mg/kg PO, resting period", "result": "≤ 4", "unit": "h"}, {"measurement": "duration of continuous wakefulness", "setting": "[1]; 150 mg/kg PO, resting period", "result": "≤ 5", "unit": "h"}, {"measurement": "Non-REM and REM sleep during the period of continuous wakefulness", "setting": "[1]; 50, 100, 150 mg/kg PO, resting period, wild-type mice", "result": "completely suppressed"}, {"measurement": "bouts of wakefulness", "setting": "[1]; 50-150 mg/kg PO, wild-type mice", "result": "significantly increased"}, {"measurement": "wake-promoting effects (magnitude)", "setting": "[1]; active (dark) period, wild-type mice, high baseline wakefulness", "result": "only small effects"}, {"measurement": "wakefulness (dose dependence)", "setting": "[1]; active period (dosed PO at ZT 14), wild-type mice", "result": "dose-dependently increased"}, {"measurement": "wake-promoting effects", "setting": "[1]; wild-type mice", "result": "Very potent"}, {"measurement": "mean duration of immobility", "setting": "[4]; 10 mg/kg PO, control 74 sec, not statistically significant", "result": 62, "unit": "s"}, {"measurement": "mean duration of immobility", "setting": "[4]; 15 mg/kg PO, control 65 sec, not statistically significant", "result": 39, "unit": "s"}, {"measurement": "mean duration of immobility", "setting": "[4]; 30 mg/kg PO, control 38 sec, significant", "result": 9, "unit": "s"}, {"measurement": "duration of continuous wakefulness", "setting": "[2]; 50 mg/kg PO, resting period", "result": "up to 3 hours"}, {"measurement": "duration of continuous wakefulness", "setting": "[2]; 100 mg/kg PO, resting period", "result": "≤ 4", "unit": "h"}, {"measurement": "wake amounts", "setting": "[2]; 100 mg/kg, active period, narcoleptic mice", "result": "brought up to the levels of wild-type mice"}, {"measurement": "duration of continuous wakefulness", "setting": "[2]; 150 mg/kg PO, resting period", "result": "≤ 5", "unit": "h"}, {"measurement": "wake amounts", "setting": "[2]; 150 mg/kg, active period, narcoleptic mice", "result": "brought up to the levels of wild-type mice"}, {"measurement": "Non-REM and REM sleep during the period of continuous wakefulness", "setting": "[2]; 50, 100, 150 mg/kg PO, resting period, narcoleptic mice", "result": "completely suppressed"}, {"measurement": "sleep patterns of narcoleptic mice", "setting": "[2]; 50-150 mg/kg PO", "result": "normalize"}, {"measurement": "bouts of wakefulness", "setting": "[2]; 50-150 mg/kg PO, narcoleptic mice", "result": "significantly increased"}, {"measurement": "wake-promoting effects (magnitude)", "setting": "[2]; narcoleptic mice", "result": "much pronounced"}, {"measurement": "wakefulness (dose dependence)", "setting": "[2]; narcoleptic mice", "result": "dose-dependently increased"}, {"measurement": "amounts of non-REM and REM sleep", "setting": "[2]; active period, narcoleptic mice", "result": "brought down to the levels of wild-type mice"}, {"measurement": "sleep that occurred after the prolonged wakefulness", "setting": "[2]; polygraphic assessments, resting period, genotypes not distinguished", "result": "normal"}, {"measurement": "wake-promoting effects", "setting": "[2]; narcoleptic mice", "result": "Very potent"}, {"measurement": "REM sleep", "setting": "[2]; [6]", "result": "potently reduced"}, {"measurement": "EEG patterns after administration", "setting": "[2]; resting period, wild-type and narcoleptic mice not distinguished", "result": "no abnormal EEG patterns"}, {"measurement": "ED50", "setting": "[5]; Mus musculus, multiple dosing PO, mice (twice a day for 3 days plus a dose on Day 4), read-out: ED50 (reduction in mean immobility time)", "result": 5.5, "unit": "mg/kg"}, {"measurement": "mean duration of immobility", "setting": "[5]; multiple dosing 3 mg/kg PO, control 85 sec", "result": 63, "unit": "s"}, {"measurement": "mean duration of immobility", "setting": "[5]; multiple dosing 5 mg/kg PO, control 136 sec, significant", "result": 73, "unit": "s"}, {"measurement": "mean duration of immobility", "setting": "[5]; multiple dosing 8 mg/kg PO, control 114 sec, significant", "result": 39, "unit": "s"}, {"measurement": "mean duration of immobility", "setting": "[5]; single dose 10 mg/kg PO, control 131 sec", "result": 101, "unit": "s"}, {"measurement": "mean duration of immobility", "setting": "[5]; single dose 15 mg/kg PO, control 154 sec, significant", "result": 80, "unit": "s"}, {"measurement": "mean duration of immobility", "setting": "[5]; single dose 30 mg/kg PO, control 132 sec, significant", "result": 30, "unit": "s"}]}
